# Reference: patent US12310964B2, “Compositions and methods for the treatment of Lowe Syndrome” (Purdue Research Foundation, priority 2020, dated 2025)
# What was measured:
# Format in all cases: cell-based, Human
# LS patient cells [1] = experiment: Cell spreading assay after a predetermined time-point (cell area)
# Protocol: Two approaches to monitor cell spreading were used: after a predetermined time-point and at multiple time points.
# 1) Spreading after a Predetermined Time-Point.
# (§1) Human dermal fibroblasts (12 h after seeding) were treated with the indicated drug (or vehicle) in 0.1% serum for the indicated time. After drug treatment, the cells were lifted with 20 mM EDTA (ethylenediaminetetraacetic acid) in PBS (phosphate-buffered saline), pelleted at 300×g for 5 min and resuspended in 1% serum in the presence of drug or vehicle. Cell suspensions were then set in a rotator for 1 hour before seeding them on fibronectin-coated coverslips for 30 min, undisturbed, to allow attachment and spreading. After spreading, coverslips were gently rinsed with PBS and fixed in 4% formaldehyde for 10 min at room temperature. Cells were stained with rhodamine—phalloidin and imaged by epifluorescence microscopy. At least 50 cells were quantified per experiment by tracing and measuring cell areas by using the magic wand tool in ImageJ software (National Institutes of Health (NIH), Bethesda, MD, USA).
# (§2) Cell spreading on fibronectin-coated surfaces of cells treated with RhoA modulators in comparison to untreated cells was observed. Cells were fixed and stained with fluorescently labeled-phalloidin after 30 min spreading time at 37° C. Following imaging, cell area measurements were performed.
# Normal fibroblasts = experiment: as above; settings: 30 min after seeding on fibronectin
# Protocol: as §1, §2
# LS patient cells [2] = experiment: Viability/toxicity assessment (cell counting, morphology, MTT)
# Protocol: Cells were incubated with the indicated drugs for the specified times at different concentrations as described in low serum (0.1%) media to avoid substantial protein-mediated drug sequestration. In addition to cell counting post-treatment, a sample of cells seeded on fibronectin-coated coverslips was fixed and stained with fluorescein isothiocyanate (FITC)-phalloidin and DAPI (4′,6-diamidino-2-phenylindole) for cell morphology inspection. Viability was monitored by performing MTT (3-(4,5-dimethylthiazol-2-yl)-2,5-diphenyltetrazolium bromide) assays as follows: Following treatment of cells (in triplicates) with indicated drugs at different concentrations for specified times, media were aspirated and replaced with MTT solution (freshly prepared at 0.5 mg/ml in complete media) and incubated for 1.5 h. Additionally, a blank control with only MTT reagent containing no cells was also prepared. Following incubation, solution was aspirated and MTT was immediately solubilized using 1 mL DMSO (dimethylsulfoxide) (per well) by gentle pipetting. Absorbance values of solubilized MTT solution from the different wells were measured at 570 nm using a spectrophotometer.
# [3] = system: HMG-CoA reductase in LS cells; experiment: Cholesterol uptake assay; settings: LS patient fibroblasts in Cho-free media
# Protocol: Assay for cholesterol uptake was performed using cholesterol-free media and an AbCam kit (ab236212; Cambridge, UK) according to manufacturer's instructions.
# Rac1 = Rac1 FRET biosensor assay; settings: LS cells, FRET-based biosensor
# Protocol: FIG. 9. […] LS patient cells expressing Rac1 FRET probe were treated with vehicle or rosuvastatin, imaged and FRET signals analyzed by the ratiometric method (*p<0.05, Wilcoxon test).
# normal cells = experiment: Ciliogenesis assay
# Protocol: Cells were seeded on glass cover slips and grown for 24 h in complete media. Then media was replaced by 0.1% serum DMEM (starvation media) containing vehicle or the drug to induce ciliogenesis for the indicated times. Cells were then fixed in 4% formaldehyde—PBS for 10 min and immuno-labeled with anti-acetylated tubulin antibody (see Table 2). At least 50 cells were imaged for every experiment and experiments were repeated at least thrice. The fraction of cells displaying cilia and cilia length were determined as described previously (Coon et al. (2012), supra).
# LS patient cells [4] = experiment: Cell adhesion by time-lapse microscopy
# Protocol: (§3) Human dermal fibroblasts were treated as described above, seeded on fibronectin-coated LabTek chambers, and allowed to attach and spread. Cells were imaged at intervals of 10 min after seeding for 8 h using 20× objective in a Zeiss Axiovert inverted microscope. Number of detaching cells was quantified every 10 min up to the first hour by using the cell counter tool in ImageJ (NIH). To determine spreading kinetics, individual cells were tracked in each time lapse image and were scored from 1-5 based on general cell morphology. Briefly, cells that were just attached and looked circular with no protrusions or visible extensions received a score of 1. Cells with needle-like (filopodia) projections were scored 2, cells with lamellopodia-like extensions were scored 3, cells with more extended lamellopodia-like extensions and increased cell area were given a score of 4, and a further increase in cell area, often accompanied by isotropic spread morphology, was given a score of 5.
# Alternatively, cells were treated as described above and allowed to attach on fibronectin-coated dishes. Immediately after seeding, the cells were imaged with a 10× objective simultaneously using up to 3 Cytosmart Imaging Systems (Lonza, Basel, Switzerland) at intervals of 30 s for 2 h. Number of cells attached was quantified every 10 min up to the first hour using the Cell Counter tool in ImageJ software (NIH). […]
# LS patient cells [5] = experiment: Spreading at multiple time points (spreading score, time-lapse); settings: LS patient cells treated with rosuvastatin; non-linear regression of FIG. 4 data
# Protocol: as §3
# A von Bertalanffy logistic model was adopted to fit the data presented in FIG. 3A (adhesion) and FIG. 4 (spreading) as shown in Table 3. […] The associated error ΔK was estimated using standard rules of error propagation based on the determined T0.5 error (ΔT0.5), according to ΔK=K(ΔT0.5/T0.5).
# [6] = system: Focal Adhesion Kinase (FAK); experiment: Focal adhesion immunofluorescence (phospho-FAK), confocal microscopy; settings: LS cells
# Protocol: Cells were prepared as described under “Spreading after a pre-determined time point.” After fixation, indirect immunofluorescence was performed using antibodies against phospho-FAK (Y397) or vinculin. Briefly, cells were gently washed with PBS, fixed with 4% formaldehyde-PBS for 10 min and permeabilized using 0.25% Triton-X 100 in PBS for 20 min, followed by blocking with 5% BSA (bovine serum albumin) in PBS for 30 min. Cells were also immuno-stained with Phalloidin-FITC and DAPI to label the actin cytoskeleton and nucleus, respectively. Images were acquired at the Indiana O'Brien Center for Biological Microscopy (ICBM; Division of Nephrology, Indiana University School of Medicine, Indianapolis, IN, USA) using an Olympus IX81 inverted confocal microscope. A 60× Oil objective (NA 1.42) was used and randomly selected fields were imaged using constant voltage, gain and intensity for the different groups, as well as uniform step size (0.19 μm) using sequential image collection mode.
smiles,measurement,setting,value
CC(C)c1nc(N(C)S(C)(=O)=O)nc(-c2ccc(F)cc2)c1/C=C/[C@@H](O)C[C@@H](O)CC(=O)O [rosuvastatin],"LS spreading phenotype alleviation, acute dose",LS patient cells [1]; 100 μM for 1 h,Phenotype alleviation was observed
same,cell spreading / membrane remodeling phenotype in cells from another LS patient,"LS patient cells [1]; LS2 cells, FIG. 8A",ameliorated
same,LS cell spreading phenotype,"LS patient cells [1]; LS patient fibroblasts, 30 min after seeding on fibronectin",mitigated to a certain extent the LS spreading phenotype
same,ranking of statins: rescue effect over needed dose and toxicity,LS patient cells [1]; LS spreading defects,produced the best results
same,cell spreading of normal cells,Normal fibroblasts,No obvious effect
same,"toxicity, chronic exposure",LS patient cells [2]; 10 μM for ≥72 h,relatively innocuous
same,"toxicity, acute dose","LS patient cells [2]; 100 μM, exposure time≥15 h",induced toxicity
same,toxicity (viability and stress-induced changes in morphology),LS patient cells [2]; LS cells after exposure to statins,minimal toxicity
same,uptake of fluorescently labeled Cho (inhibition of cholesterol biosynthesis),[3],less acute inhibition of cholesterol biosynthesis
same,Rac1 activation levels,Rac1,raised
same,ciliogenesis by normal cells,normal cells,No obvious effect
same,LS cell adhesion defect,LS patient cells [4]; LS cells on fibronectin-coated surfaces,alleviated the LS cell adhesion defect
same,"Adhesion, Process Continuous Rate","LS patient cells [4]; LS patient cells treated with rosuvastatin, fibronectin-coated surfaces, non-linear regression of FIG. 3A data",35 ± 5 min^−1 × 10^3
same,"Spreading, Process Continuous Rate",LS patient cells [5],24 ± 2 min^−1 × 10^3
same,peripherally activated FAK (phospho-Tyr397) abnormality,[6],alleviated
